Measured values as given in ChEMBL document CHEMBL4229477, “Reevaluating the Substrate Specificity of the L-Type Amino Acid Transporter (LAT1)” (J Med Chem, 2018).

Assays:
[1] = molecular target: Large neutral amino acids transporter small subunit 1 (Homo sapiens) (UniProt Q01650); test: Cis-inhibition of human LAT1 expressed in TREx HEK293 cells at 200 uM assessed as inhibition of [3H]-gabapentin uptake at 200 uM preincubated for 3 mins at 37 degC followed by washing with choline buffer and measured after 3 hrs by scintillation counting analysis relative to BCH; format: cell-based
Chain of Large neutral amino acids transporter small subunit 1 (Homo sapiens) (Q01650 whole entry): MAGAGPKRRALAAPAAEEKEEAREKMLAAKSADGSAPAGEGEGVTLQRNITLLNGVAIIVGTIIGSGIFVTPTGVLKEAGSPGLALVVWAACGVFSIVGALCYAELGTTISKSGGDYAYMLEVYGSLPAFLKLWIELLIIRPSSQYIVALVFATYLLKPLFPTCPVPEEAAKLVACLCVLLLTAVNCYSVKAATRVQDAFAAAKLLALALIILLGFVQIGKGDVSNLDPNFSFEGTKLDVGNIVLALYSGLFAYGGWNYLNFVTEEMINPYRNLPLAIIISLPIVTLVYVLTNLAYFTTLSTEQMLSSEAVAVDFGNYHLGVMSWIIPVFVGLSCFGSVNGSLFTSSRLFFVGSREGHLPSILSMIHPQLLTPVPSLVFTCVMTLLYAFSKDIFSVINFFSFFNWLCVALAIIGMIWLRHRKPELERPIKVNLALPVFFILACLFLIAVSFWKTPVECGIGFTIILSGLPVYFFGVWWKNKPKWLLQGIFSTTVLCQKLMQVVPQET

[2] = molecular target: Large neutral amino acids transporter small subunit 1 (Homo sapiens) (UniProt Q01650); test: Trans-stimulation of human LAT1 expressed in TREx HEK293 cells assessed as induction of [3H]-gabapentin efflux at 200 uM after 3 mins by scintillation counting analysis relative to L-phenylalanine; format: cell-based
N[C@H](Cc1ccccc1)C(=O)O = test: (§1) Substrate activity at recombinant human LAT1 expressed in Xenopus laevis oocytes assessed as Km by measuring L-[14C]-leucine uptake by Eadie-Hofstee plot method; format: cell-based
N[C@@H](Cc1ccccc1)C(=O)O [3] = test: as §1; format: cell-based
N[C@@H](Cc1ccccc1)C(=O)O [4] = test: Binding affinity to LAT1 (unknown origin) by in-vitro cell uptake assay; conditions: Homo sapiens

Chain of Large neutral amino acids transporter small subunit 1 (Homo sapiens), Q01650 (Q01650 whole entry): as above

N[C@@H](Cc1cn(Cc2ccccc2)cn1)C(=O)O
inhibition [1]: 74% | Activity [2]: 81%

CC[C@H](C)[C@@H](N)C(=O)O
inhibition [1]: 18% | Activity [2]: 78%

COC(=O)c1cc(C)cc(C[C@H](N)C(=O)O)c1
inhibition [1]: 71% | Activity [2]: 56%

N[C@@H](Cc1cccc(CO)c1)C(=O)O
inhibition [1]: 99% | Activity [2]: 120%

Large neutral amino acids transporter small subunit 1 (Homo sapiens), Q01650
Km (N[C@H](Cc1ccccc1)C(=O)O): 121 µM | Km (N[C@@H](Cc1ccccc1)C(=O)O [3]): 14.2 µM | Km (N[C@@H](Cc1ccccc1)C(=O)O [4]): 11 µM

CSCC[C@](N)(Cc1ccccc1)C(=O)O
inhibition [1]: 21% | Activity [2]: 56%

COC(=O)c1cccc(C[C@H](N)C(=O)O)c1
inhibition [1]: 81% | Activity [2]: 89%

N[C@@H](Cc1cccc(Cc2ccccc2)c1)C(=O)O
Activity [2]: 29%

N[C@@H](Cc1ccccc1)C(=O)O
Activity [2]: 100%

NC(Cc1ccccc1)(Cc1ccccc1)C(=O)O
inhibition [1]: 11% | Activity [2]: 23%

N[C@@H](Cc1cccc(C(F)(F)F)c1)C(=O)O
inhibition [1]: 87% | Activity [2]: 59%

N[C@H](Cc1c[nH]c2ccccc12)C(=O)O
inhibition [1]: 29% | Activity [2]: 81%

N[C@@H](Cc1cccc(O)c1)C(=O)O
inhibition [1]: 97% | Activity [2]: 96%

COC(=O)c1ccc(C[C@H](N)C(=O)O)cc1
inhibition [1]: 37% | Activity [2]: 67%

CSCC[C@@](N)(Cc1ccccc1)C(=O)O
inhibition [1]: -0.2% | Activity [2]: 27%

N[C@@H](Cc1cccc(C(=O)OCCO)c1)C(=O)O
inhibition [1]: 81% | Activity [2]: 74%

COC(=O)Cc1cccc(C[C@H](N)C(=O)O)c1
inhibition [1]: 72% | Activity [2]: 52%

N#Cc1cccc(C[C@H](N)C(=O)O)c1
inhibition [1]: 67% | Activity [2]: 70%

COC(=O)c1cccc(C[C@@H](N)C(=O)O)c1
inhibition [1]: 40% | Activity [2]: 41%

N[C@H](Cc1ccc(O)cc1)C(=O)O
inhibition [1]: 35% | Activity [2]: 85%

Cc1cc(C[C@H](N)C(=O)O)cc(C(=O)O)c1
inhibition [1]: 30% | Activity [2]: 28%

CC(=O)Oc1cccc(C[C@H](N)C(=O)O)c1
inhibition [1]: 54% | Activity [2]: 37%

CSCC[C@@H](N)C(=O)O
inhibition [1]: 56% | Activity [2]: 110%

Nc1cccc(C[C@H](N)C(=O)O)c1
inhibition [1]: 100% | Activity [2]: 100%

Cc1cccc(C[C@H](N)C(=O)O)c1
Activity [2]: 140%

CC(C)[C@H](N)C(=O)O
inhibition [1]: 43% | Activity [2]: 100%

N[C@@H](Cc1ccc(O)cc1)C(=O)O
Activity [2]: 96%

N[C@@H](Cc1cccc(CC(=O)O)c1)C(=O)O
inhibition [1]: 25% | Activity [2]: 24%

CNC(=O)c1cccc(C[C@H](N)C(=O)O)c1
inhibition [1]: 88% | Activity [2]: 100%

N[C@@](Cc1ccccc1)(Cc1c[nH]cn1)C(=O)O
inhibition [1]: 19% | Activity [2]: 13%

N=C(N)NCCC[C@H](N)C(=O)O
Activity [2]: 28%

NCC(=O)O
Activity [2]: 29%

CC(C)(C)OC(=O)c1cccc(C[C@H](N)C(=O)O)c1
inhibition [1]: 99% | Activity [2]: 70%

NCc1cccc(C[C@H](N)C(=O)O)c1
inhibition [1]: 27% | Activity [2]: 78%

NCCCC[C@H](N)C(=O)O
inhibition [1]: -2.1% | Activity [2]: 33%

CC[C@H](C)[C@H](N)C(=O)O
Activity [2]: 93%

CC(C)C[C@](N)(Cc1ccccc1)C(=O)O
inhibition [1]: 15% | Activity [2]: 19%

CC(C)C[C@@](N)(Cc1ccccc1)C(=O)O
inhibition [1]: 2.1% | Activity [2]: 27%

N[C@@H](CCC(=O)O)C(=O)O
inhibition [1]: -2.4% | Activity [2]: 27%

N[C@H](Cc1ccccc1)C(=O)O
inhibition [1]: 74% | Activity [2]: 96%

N[C@@H](Cc1c[nH]c2ccccc12)C(=O)O
Activity [2]: 59%

N[C@@H](Cc1c[nH]cn1)C(=O)O
inhibition [1]: 92% | Activity [2]: 140%

N[C@H](Cc1c[nH]cn1)C(=O)O
inhibition [1]: 33% | Activity [2]: 78%

CC(=O)c1cccc(C[C@H](N)C(=O)O)c1
inhibition [1]: 100% | Activity [2]: 96%

CC(C)[C@@H](N)C(=O)O
inhibition [1]: 11% | Activity [2]: 41%

CC(=O)Nc1cccc(C[C@H](N)C(=O)O)c1
inhibition [1]: 85% | Activity [2]: 110%

CC(C)(C)c1cccc(C[C@H](N)C(=O)O)c1
inhibition [1]: 101% | Activity [2]: 44%

CSCC[C@H](N)C(=O)O
Activity [2]: 89%

N[C@@H](Cc1cccc(C(=O)O)c1)C(=O)O
inhibition [1]: 69% | Activity [2]: 56%

Cc1ccc(C[C@H](N)C(=O)O)cc1
Activity [2]: 100%

N[C@@H](Cc1cccc(-c2ccccc2)c1)C(=O)O
Activity [2]: 29%

N[C@H](Cc1cccc(C(=O)O)c1)C(=O)O
inhibition [1]: 9% | Activity [2]: 31%
